According to publication PMC3265452 (PLoS Neglected Tropical Diseases, 2012):
Where a name gives a salt, the structure may show the parent alone.

target: AaDOP2 (Aedes aegypti, UniProt H6D5H2); assay: AaDOP2 antagonist screen of the LOPAC1280 library (HEK-CRELuc-Aadop2 cells, luminescence); assay type: cell-based; settings: not given
Sequence (H6D5H2 1-476): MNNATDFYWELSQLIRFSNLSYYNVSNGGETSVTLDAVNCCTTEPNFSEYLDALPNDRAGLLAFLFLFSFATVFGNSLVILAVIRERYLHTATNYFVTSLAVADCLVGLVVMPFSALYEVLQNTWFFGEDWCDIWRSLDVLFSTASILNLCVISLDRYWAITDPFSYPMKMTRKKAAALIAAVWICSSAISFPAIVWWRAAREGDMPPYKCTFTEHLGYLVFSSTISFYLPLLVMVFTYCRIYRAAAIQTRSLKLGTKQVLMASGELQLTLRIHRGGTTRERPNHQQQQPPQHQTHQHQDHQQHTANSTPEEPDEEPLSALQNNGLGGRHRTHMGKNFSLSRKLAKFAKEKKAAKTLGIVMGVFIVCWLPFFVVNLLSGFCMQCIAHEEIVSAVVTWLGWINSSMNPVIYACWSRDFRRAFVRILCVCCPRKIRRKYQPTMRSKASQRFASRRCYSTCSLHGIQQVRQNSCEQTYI

SMILES | Compound effect (percent receptor signaling in presence of test compound, relative lux units relative to the SCH23390 control)
O=c1onc2cnc3ccccc3n12 [Compound 904, ODQ] | 98
CC1COc2c(N3CCN(C)CC3)c(F)cc3c(=O)c(C(=O)O)cn1c23 (stereo not drawn) [Compound 907, Ofloxacin] | 92
O=C(O)/C=C/C(=O)O.O=C(O)/C=C/C(=O)O.O=C(O)/C=C/C(=O)O.O=C1CCCN1CC#CCN1CCCC1.O=C1CCCN1CC#CCN1CCCC1 [Compound 908, Oxotremorine sesquifumarate salt] | 88
O=c1[nH]c2ccccc2n1CCCN1CCN(C(c2ccccc2)c2ccccc2)CC1 [Compound 909, Oxatomide] | 72
Cn1cc(C2=C(c3ccc(Cl)cc3Cl)C(=O)NC2=O)c2ccccc21 [Compound 910, SB 216763] | 80
O=C(O)CCc1nc(-c2ccccc2)c(-c2ccccc2)o1 [Compound 911, Oxaprozin] | 106
C[N+](C)(C)CC#CCN1CCCC1=O [Compound 912, Oxotremorine methiodide] | 99
CC(=O)[C@H]1CC[C@H]2[C@@H]3CCC4=CC(=O)CC[C@]4(C)[C@H]3CC[C@]12C [Compound 914, Progesterone] | 77
CCCCCCCCCCCCCCCC(=O)NCCO [Compound 915, Palmitoylethanolamide] | 89
N=C(N)c1ccc(OCCCCCOc2ccc(C(=N)N)cc2)cc1 [Compound 917, Pentamidine isethionate] | 87
C=C1C(=O)O[C@H]2[C@H]1CC/C(C)=C/CC[C@@]1(C)O[C@@H]21 [Compound 919, Parthenolide] | 74
CC(C)NCC(O)COc1cccc2[nH]ccc12 (stereo not drawn) [Compound 920, Pindolol] | 96
N#Cc1c(-c2ccccc2)no[n+]1[O-] [Compound 925, 4-Phenyl-3-furoxancarbonitrile] | 93
CC(=O)CCCCn1c(=O)c2c(ncn2C)n(C)c1=O [Compound 926, Pentoxifylline] | 119
O=c1[nH]c2ccccc2n1C1CCN(CCCC(c2ccc(F)cc2)c2ccc(F)cc2)CC1 [Compound 927, Pimozide] | 61
CC(=O)O[C@H]1C[C@@H]2CC[C@@H]3[C@H](CC[C@@]4(C)[C@H]3C[C@H]([N+]3(C)CCCCC3)[C@@H]4OC(C)=O)[C@@]2(C)C[C@@H]1[N+]1(C)CCCCC1 [Compound 929, Pancuronium bromide] | 96
C[C@]12CC[C@@H](O)C[C@@H]1CC[C@@H]1[C@@H]2CC[C@]2(C)[C@@H](C(=O)CO)CC[C@@H]12 [Compound 930, 3-alpha,21-Dihydroxy-5-alpha-pregnan-20-one] | 96
Cc1ccc(=O)n(-c2ccccc2)c1 [Compound 931, Pirfenidone] | 102
Cn1c(=O)c2[nH]c(-c3ccccc3)nc2n(C)c1=O [Compound 932, 1,3-Dimethyl-8-phenylxanthine] | 107
N=C1Sc2ccccc2C2=NCCCN12 [Compound 935, PD 404,182] | 101
COc1ccc(Cc2nccc3cc(OC)c(OC)cc23)cc1OC [Compound 936, Papaverine hydrochloride] | 92

SMILES | Compound effect (percent receptor signaling in presence of test compound, relative lux units relative to the SCH23390 control)
S=C(Nc1ccccc1)Nc1nccs1 [Compound 938, 1-Phenyl-3-(2-thiazolyl)-2-thiourea] | 84
C=C/C(C)=C/[C@@]1(C)SC(=O)C(C)=C1O [Compound 939, Thiolactomycin] | 96
N.N.[Cl][Pt][Cl] [Compound 940, Cisplatin] | 88
COc1cc([C@@H]2c3cc4c(cc3[C@H](O)[C@H]3COC(=O)[C@H]23)OCO4)cc(OC)c1OC [Compound 941, Podophyllotoxin] | 84
CC(C)[C@H](CO)Nc1nc(Nc2cccc(Cl)c2)c2ncn(C(C)C)c2n1 [Compound 942, Purvalanol A] | 7
C[C@H](Cc1ccccc1)Nc1ncnc2c1ncn2[C@@H]1O[C@H](CO)[C@@H](O)[C@H]1O [Compound 944, R(-)-N6-(2-Phenylisopropyl)adenosine] | 112
CCCC(CCC)C(=O)O [Compound 945, Valproic acid sodium] | 85
O=C(C1CCCCC1)N1CC(=O)N2CCc3ccccc3C2C1 (stereo not drawn) [Compound 947, Praziquantel] | 81
CCCNCC(O)COc1ccccc1C(=O)CCc1ccccc1 (stereo not drawn) [Compound 948, Propafenone hydrochloride] | 74
CC(=O)[C@H]1CC[C@H]2[C@@H]3CC[C@H]4C[C@H](O)CC[C@]4(C)[C@H]3C(=O)C[C@]12C [Compound 949, 5alpha-Pregnan-3alpha-ol-11,20-dione] | 89
CN1C(C)(C)CCCC1(C)C [Compound 950, Pempidine tartrate] | 100
NC(=O)CN1CCCC1=O [Compound 951, Piracetam] | 103
C[C@@H]1O[C@@H]1P(=O)(O)O [Compound 952, Phosphomycin disodium] | 104
COc1ccc(CN(CCN(C)C)c2ccccn2)cc1 [Compound 953, Pyrilamine maleate] | 59
CN1C(C(=O)Nc2ccccn2)=C(O)c2ccccc2S1(=O)=O [Compound 954, Piroxicam] | 83
CCCn1c(=O)[nH]c(=O)c2[nH]cnc21 [Compound 955, 3-n-Propylxanthine] | 93
CNC[C@H](O)c1cccc(O)c1 [Compound 956, Phenylephrine hydrochloride] | 93
OCCN1CCN(CCCN2c3ccccc3Sc3ccc(Cl)cc32)CC1 [Compound 957, Perphenazine] | 5
C1CCc2nnnn2CC1 [Compound 958, Pentylenetetrazole] | 94
CC[C@@H]1C(=O)OC[C@@H]1Cc1cncn1C [Compound 960, Pilocarpine nitrate] | 96
CN(C)CCCN1c2ccccc2Sc2ccccc21 [Compound 961, Promazine hydrochloride] | 12

same assay, conditions: 10 µM compound, 300 nM dopamine, 2 hr; hit = compound effect <20

SMILES | Compound effect (percent receptor signaling in presence of test compound, relative lux units relative to the SCH23390 control)
N[C@@H](COP(=O)(O)O)C(=O)O [Compound 921, O-Phospho-L-serine] | 102%
CCCC(C(=O)OCCN(CC)CC)(c1ccccc1)c1ccccc1.Cl [Compound 923, SKF-525A hydrochloride] | 88%
O=C(O)CC[C@@H](C(=O)O)N1C(=O)c2ccccc2C1=O [Compound 928, L-Glutamic acid, N-phthaloyl-] | 106%
Cc1nc(N=Nc2cc(S(=O)(=O)[O-])c3cc([N+](=O)[O-])cc(S(=O)(=O)[O-])c3c2)c(COP(=O)([O-])[O-])c(C=O)c1O.[Na+].[Na+].[Na+].[Na+] [Compound 934, PPNDS tetrasodium] | 106%
C[N+]1(CCCCC[N+]2(C)CCCC2)CCCC1.O=C([O-])C(O)C(O)C(=O)O.O=C([O-])C(O)C(O)C(=O)O [Compound 937, Pentolinium di[L(+)-tartrate]] | 94%
CC[C@@H]1C(=O)OC[C@@H]1Cc1cncn1C.Cl [Compound 959, (+)-Pilocarpine hydrochloride] | 104%

same assay, conditions: read-out: % of the SCH23390 effect (percent inhibition of receptor response relative to the SCH23390 control)

SMILES | inhibition at 10 µM
CC(C)[C@H](CO)Nc1nc(Nc2cccc(Cl)c2)c2ncn(C(C)C)c2n1 [Compound 942, Purvalanol A] | 93%
OCCN1CCN(CCCN2c3ccccc3Sc3ccc(Cl)cc32)CC1 [Compound 957, Perphenazine] | 95%
CN(C)CCCN1c2ccccc2Sc2ccccc21 [Compound 961, Promazine hydrochloride] | 88%
